“Also recorded” adds a separate entry of the source.
Experiments:
PLTP expression = assay: Northern blot analysis of PLTP expression in HepG2 cells; type: cell-based, human; settings: for induction of PLTP expression: 500 nM, 24 hrs (FIG. 5)
Experimental: Dose response induction of PLTP was performed in HepG2 cells for 24 hrs. RNAs isolated were separated on agarose gel and then transferred to nitrocellulose filters for hybridization with a labeled full-length PLTP cDNA probe. […] Lane 1, control (untreated); 2, 1 nM; 3, 20 nM; 4, 100 nM; 5, 500 nM; and 6, 1,000 nM topotecan expression. […] This may be a result of the inhibition of transcription by topotecan at the higher dosage.
HepG2 cells were treated with the indicated drugs (500 nM) for 24 hrs. RNAs were then harvested and fractionated on agarose gel and then transferred to nitrocellulose filters for hybridization with a full length PLTP cDNA probe.
We first examined topotecan-induced PLTP expression in an independent dose response study by Northern blot analysis. […] This may be a result of the inhibition of transcription by topotecan at the higher dosage. […]

[1] = tested on: cultured tumor cell lines; settings: Table 1
Text: To determine whether the induction of PLTP expression is topotecan specific, we evaluated the effects of camptothecin and some of its derivatives, and compared them against some protoberberines, which are a new class of organic cations that are dual poisons of topoisomerases I and II (3–5). Berberine is an isoquinoline plant alkaloid.

PLTP promoter [2] = type: cell-based, human; settings: HepG2/PLTPpLuc; for specificity of induction of PLTP promoter activity: 24 hours (FIG. 14)
Text: FIG. 11 is a schematic drawing of the promoter of the phospholipid transfer protein (PLTP) gene. A 1.6 kb fragment of the PLTP gene promoter derived from a BAC clone was PCR amplified and then subcloned into a modified pXP1 luciferase reporter plasmid vector. The modified vector contained the neomycin resistance marker gene.
HepG2 cells were permanently transfected with the construct shown in FIG. 11, and selected for resistance to G418, an aminoglycoside antibiotic. Clone 1, a G418 resistant cell line isolated from the selection, designated HepG2/PLTPpLuc, was utilized for testing the effect of topotecan on induction of PLTP promoter activity. The transfectant cell line, HepG2/PLTPpLuc, was treated with topotecan (500 nM) for approximately 24 hours. Cell extracts were obtained at the end of incubation and the luciferase assay was performed with them. The luciferase activity of the topotecan treated cells (+) was plotted relative to the control (−).
FIG. 13 illustrates the time course analysis of induction of PLTP promoter activity by topotecan in HepG2/PLTPpLuc cells. The HepG2/PLTPpLuc cells were treated with 500 nM of topotecan. Cell extracts were obtained at various time points following treatment with topotecan (0, 4, 8, 12, 16, and 24 hours) and assayed for luciferase activity, which was plotted as a function of time.
The HepG2/PLTPpLuc cells were treated with either topotecan, taxol, or melphalan for 24 hours. Cell extracts were then obtained for the luciferase assay.
The luciferase reporter plasmid was constructed by cloning the PLTP promoter derived from a BAC clone into the pXP2 luciferase reporter vector. A neomycin selectable marker gene driven by the CMV early promoter was further subcloned into the PLTP-luciferase reporter plasmid (FIG. 11).
Approximately 10 μg of the PLTP-luciferase reporter plasmid was transfected using lipofectamine into HepG2 cells for about 4 hrs. Cells were washed and then further cultured and selected in the presence of 1.6 mg/ml of G418 for neomycin resistance. Media were changed every 3 days with fresh G418 added at the above concentration. Approximately 14 days later, colonies that emerged from the selection were picked using cloning cylinders and the clones were transferred to 24-well cluster dishes for further culturing and selection.
At confluence, cells were next transferred to 12-well dishes and aliquots were also transferred to 24-well dishes for screening with topotecan for induction of the PLTP promoter activity. Luciferase assay was performed using a standard luciferase assay kit from Promega.

PLTP promoter [3] = assay: PLTP promoter-luciferase reporter, transient transfection in HepG2 cells (dual luciferase assay); type: cell-based, human; settings: 24 hrs
Experimental: FIGS. 6A and 6B depict the transactivation of the PLTP promoter by topotecan. FIG. 6A is a schematic drawing of the PLTP gene promoter-luciferase reporter construct. The promoter was PCR amplified from a BAC clone containing the genomic sequence for the human PLTP gene. FIG. 6B graphically presents the results calibrated in terms of luciferase activity, of a study where HepG2 cells were transfected with the PLTP promoter-luciferase reporter and were then treated with various doses of topotecan for 24 hrs. Cell extracts were harvested for the dual luciferase assay (Promega, Wis.). The relative luciferase activity has been normalized with the internal control renella luciferase activity cotransfected with the promoter reporter construct, to monitor transfection efficiency.
We also determined whether induction of PLTP gene expression by topotecan is transcriptionally activated. Approximately 1.5 kb of the PLTP promoter sequence was obtained by the polymerase chain reaction (PCR) amplification of a human BAC clone (RP3-337018) containing the genomic sequence of PLTP. The PCR product consisting of the promoter region was sequenced verified and then subcloned into a luciferase reporter vector pGL2-Basic vector (Promega, Wis.) (FIG. 6A). […]

[4] = tested on: phospholipid transfer protein (PLTP) gene; assay: DNA microarray expression profiling of topotecan-treated HepG2 cells; type: cell-based, human
Experimental: (§1) FIG. 1 is a DNA microarray presenting expression profiling of topotecan induced HepG2 cells. HepG2 cells were treated with 500 nM of topotecan in time course study for the indicated time points in the figure. RNAs were isolated, labeled and hybridized to the array. Scan image were analyzed using the Pathway and the Cluster softwares. The results of cluster analysis are shown in TreeView. Transition of color to red indicates the upregulation, and to green is the downregulation of gene expression.
FIG. 2 is a scanned image of the PLTP gene induced by topotecan. HepG2 cells were treated with topotecan in time-course and dose response studies. The microarrays were exposed to phosphorimage screen and the scanned images were analyzed with the Pathway software. Enlarged scanned images for the induction of PLTP gene with time and dose are shown.
as §1, with “3” for “1”, “various concentrations” for “500 nM”, “topotecan.” for “topotecan in time course study for the indicated time points in the figure.”, “images” for “image”, “TreeView. A representative set of genes with altered expression was plotted in the line graphs.” for “TreeView.”
We have used DNA microarray to monitor the expression profiles of cells in response to anticancer drug treatments, and also comparing these profiles to those obtained from cancer cells that have been selected for resistance to the corresponding agents. […]
The HepG2 cells were either transiently treated with 500 nM of topotecan for various times (1–24 hrs), or with various doses of topotecan (1–1000 nM) for 24 hrs. […] The scanned images were processed and analyzed on the Pathways™ software. Tab delimited files generated from Pathways™ were imported into Microsoft Excel® for sorting by fold changes and intensity levels (radioactivity, cpm).

Row | SMILES | induction of PLTP expression (PLTP expression) | Cytotoxicity [1] | specificity of induction of PLTP promoter activity (PLTP promoter [2]) | also measured
1 | CCC1(O)C(=O)OCc2c1cc1n(c2=O)Cc2cc3c(N)c4c(cc3nc2-1)OCO4 [9-NH2-10,11-MD-CPT(S)] | induced | Active | – | –
2 | N[C@@H](Cc1ccc(N(CCCl)CCCl)cc1)C(=O)O [melphalan] | – | – | no significant stimulation | –
3 | CC[C@]1(O)C[C@@H]2CN(CCc3c([nH]c4ccccc34)[C@@](C(=O)OC)(c3cc4c(cc3OC)N(C)[C@H]3[C@@](O)(C(=O)OC)[C@H](OC(C)=O)[C@]5(CC)C=CCN6CC[C@]43[C@@H]65)C2)C1 [vinblastine] | failed to induced PLTP gene expression; also recorded: did not induce PLTP expression | – | – | –
4 | CCC1(O)C(=O)OCc2c1cc1n(c2=O)Cc2cc3c(N)c4c(cc3nc2-1)OCO4 [9-NH2-10,11-MD-CPT(R)] | – | Inactive | – | –
5 | CC(=O)O[C@H]1C(=O)[C@@]2(C)[C@H]([C@H](OC(=O)c3ccccc3)[C@]3(O)C[C@H](OC(=O)[C@H](O)[C@@H](NC(=O)c4ccccc4)c4ccccc4)C(C)=C1C3(C)C)[C@]1(OC(C)=O)CO[C@@H]1C[C@@H]2O [taxol] | – | – | no significant stimulation | –
6 | CC[C@@]1(O)C(=O)OCc2c1cc1n(c2=O)Cc2cc3c(N)cccc3nc2-1 [9-NH2-CPT(S)] | induced | Active | – | –
7 | CC[C@@]1(O)C(=O)OCc2c1cc1n(c2=O)Cc2cc3c(CN(C)C)c(O)ccc3nc2-1 [topotecan] | induced | – | specific for topotecan | PLTP promoter activity at the highest dose (PLTP promoter [3]; 1 μM): inhibition of the promoter activity; transactivation of PLTP promoter, dose response (PLTP promoter [3]; various doses): transactivated by topotecan dose-dependently; PLTP expression at the highest dose (PLTP expression; 1 μM, 24 hrs): reversed; induction of PLTP expression, dose response (PLTP expression; 1–1000 nM, 24 hrs): dose dependent induction; also recorded: elevated with increasing doses; induction of PLTP gene expression ([4]; 500 nM topotecan, after 24 hrs of exposure): approximately 20 fold; onset of PLTP expression after exposure ([4]; 500 nM topotecan, time course): 10 to 15 h; induction of PLTP expression, dose response ([4]; 1–1000 nM, 24 hrs): elevated in a dose dependent manner; induction of PLTP promoter activity (PLTP promoter [2]; 500 nM, approximately 24 hours (FIG. 12)): approximately 20 fold
8 | CCc1c2c(nc3ccc(OC(=O)N4CCC(N5CCCCC5)CC4)cc13)-c1cc3c(c(=O)n1C2)COC(=O)[C@]3(O)CC [Irinotecan (CPT-11), Irinotecan] | failed to activate PLTP expression | – | – | –
9 | CC[C@@]1(O)C(=O)OCc2c1cc1n(c2=O)Cc2cc3ccccc3nc2-1 [Camptothecin (CPT), Camptothecin] | induced | Active | – | –

— patent US7078411B2, “Phospholipid transfer protein (PLTP) and cholestoral metabolism” (priority 2001, dated 2006)
